| Structure (SMILES) | melting point |
| --- | --- |
| CCOc1noc2c1CN(C(=O)OC)CC2 | 95 to 98 °C |
| NCCN1CCC(Nc2nc3ccccc3n2Cc2ccnc3ccccc23)CC1 | 196 °C |
| N#Cc1nn(-c2c(Cl)cc(C(F)(F)F)cc2Cl)c(N)c1-c1cccc([N+](=O)[O-])c1 | 212 to 214 °C |
| CCCCCCOc1ccc(CC(C)C(=O)Oc2ccc(-c3ccc(F)cc3)cc2)cc1 (configuration not stated) | 78.4 to 79.5 °C |
| COc1cc(S(N)(=O)=O)cnc1Cl | 156 to 158 °C |
| CN1CCN(c2ncnc3oc(-c4ccccc4)c(-c4ccc(F)cc4)c23)CC1 | 143 to 144 °C |
| CON1C(=O)CC2(CCN(C(=O)OC(C)(C)C)CC2)C1=O | 117 °C |
| CCCCc1ncc(/C=C(/C=C/C(=O)O)Cc2cccs2)n1Cc1ccccc1Cl | 191 to 192 °C |
| O=C1CCN(Cc2ccccc2)CC1C1c2ccccc2Oc2ccccc21 (configuration not stated) | 124 to 125 °C |
| CC(=O)c1ccc2c(c1)C(c1ccccc1F)=NC(C)C(=O)N2 (configuration not stated) | 203 °C |
| Cc1c2c(c(Br)c(C(C)C)c1OCc1ccccc1)OC(C)(C)C2 | 156 °C |
| CNS(=O)(=O)c1cc(-n2nc3ccc(Cl)cn3c2=O)c(F)cc1C#N | 154 to 157 °C |
| COc1cc(OC)cc(N2CCN(C(=O)Nc3cc(C(C)(C)O)c(C)nc3OC)CC2)c1 | 146 to 148 °C |
| CC(C)OCCCNc1c([N+](=O)[O-])cnc2cccnc12 | 62.5 to 63.5 °C |
| CCC(=O)NCC(CO)c1cccc2ccc(OC)cc12 (configuration not stated) | 128 to 129 °C |
| COc1ccc(CCNC(=O)C(F)(F)F)cc1S(N)(=O)=O | 165 to 166 °C |
| CCCOC(=O)c1cncn1C(C)c1ccccc1 (configuration not stated) | 156 to 157 °C |
| O=C(O)c1cccc(-c2cc(-c3ccc(C(F)(F)F)cc3)on2)c1 | 276 to 277 °C |
| COc1cc(CO)ccc1OCc1nc(-c2cccnc2)oc1C | 117 to 118 °C |

The next lines start with the values.

| melting point | Structure (SMILES) |
| --- | --- |
| 155 to 156 °C | O=C(C=Cc1ccc(OCc2ccccc2)c([N+](=O)[O-])c1)N1CCCCC1 |
| 97 °C | Nc1ccc(C(=O)OCCCCl)c(N)c1 |
| 187 °C | CN(C(=O)OC(C)(C)C)[C@H](Cc1ccc(Cl)c(Cl)c1)[C@H](O)CC(=O)N[C@@H]1CCCCNC1=O |
| 218 to 219 °C | CCc1c(Sc2ccccc2)[nH]c(=O)[nH]c1=O |
| 152 °C | COC(=O)c1ccc(CBr)c(SC(=O)c2ccc(C(C)(C)C)cc2)c1 |
| 89.5 °C | CSC(=CC(=O)c1cccc(C(F)(F)F)c1)SC |
| 273 to 274 °C | COc1ccc2nc(C)[nH]c(=O)c2c1Br |
| 130 to 135 °C | O=C1CC2(CCCCC2Cc2ccccc2)S(=O)(=O)CCN1 (configuration not stated) |
| 67 to 68 °C | O=C(Cc1ccccc1Nc1c(Cl)cccc1Cl)OCCc1ccccn1 |
| 82 to 83 °C | Cc1nn(C2(F)C=CC([N+](=O)[O-])=CC2)c(=O)n1C(F)F (configuration not stated) |
| 158 to 159 °C | CCCc1c(CCC(=O)O)cnn1Cc1ccc(OCc2nc(-c3ccccc3)oc2C)cc1 |
| 209 to 213 °C | COc1cc(OCc2ccccn2)ccc1/C=C/c1cc(/C=C/c2c[nH]c3ccc(F)cc23)n[nH]1 |
| 142 to 143 °C | CC(=O)Nc1cc(N)c(Cl)cc1F |
| 207 to 209 °C | NCc1ccc(Nc2n[nH]c3ncnc(Nc4cccc(Cl)c4)c23)cc1 |
| 85 to 86 °C | NC(=NO)c1ccccc1N |
| 73.7 °C | CCCc1cc(C)nc(-c2cccc(Oc3ccccc3Cl)n2)n1 |
| 95 to 96 °C | C#Cc1ccc(OC)c(OCC)c1 |
| 63 to 65 °C | N#Cc1ccc(CC=O)cc1 |
| 162 to 163 °C | COC(=O)c1nnc(Cl)cc1NCc1ccc(OC)c(Cl)c1 |
| 150 °C | Cc1ccc(S(=O)(=O)NC(=O)c2cc(Oc3ccc(C(F)(F)F)cc3Cl)ccc2[N+](=O)[O-])cc1 |
| 105 to 106 °C | CC(C)n1cnc2c(Nc3ccncc3)nc(F)nc21 |
| 175 to 176 °C | CC(C)(C)OC(=O)NCCNC(=O)c1n[nH]cc1-c1cccc(F)c1 |
| 145 to 146 °C | N#CC1(c2ccc(OCc3ccc(F)cc3)c(OC3CCCC3)c2)CCC(=O)CC1 |
